Assay results from ChEMBL document CHEMBL1201862, “PubChem BioAssay data set” (2004).
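Cells were grown in 96-well plates and exposed to each compound for 48 hours at five concentrations; endpoints were interpolated linearly between bracketing concentrations, or set to the highest concentration if not reached. GI50 = concentration required for 50% inhibition of growth.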 The source made the active and inactive calls. No stated cut-off is given here; in the data, active = GI50 up to about 1.1 µM and inactive = higher.

Experiments:
Experiment in all cases: inhibition of tumour cell growth, NCI panel, 48 h
786-0 = system: 786-0
DMS-273 = system: DMS-273
HCT-15 = system: HCT-15
HOP-92 = system: HOP-92
K562 = system: K562
Malme-3M = system: Malme-3M
NCI-H23 = system: NCI-H23
OVCAR-4 = system: OVCAR-4
RPMI-8226 = system: RPMI-8226
SF-295 = system: SF-295
SF-539 = system: SF-539
SK-MEL-28 = system: SK-MEL-28
SK-OV-3 = system: SK-OV-3
SN12C = system: SN12C
SNB-19 = system: SNB-19
ACHN = system: ACHN
BT-549 = system: BT-549
DU-145 = system: DU-145
MCF7 = system: MCF7
T47D = system: T47D

Row | Compound | GI50 (786-0) | GI50 (DMS-273) | GI50 (HCT-15) [µM] | GI50 (HOP-92) | GI50 (K562) | GI50 (Malme-3M) | GI50 (NCI-H23) | GI50 (OVCAR-4) | GI50 (RPMI-8226) | GI50 (SF-295) | GI50 (SF-539) | GI50 (SK-MEL-28) | GI50 (SK-OV-3) | GI50 (SN12C) | GI50 (SNB-19) | GI50 (ACHN) | GI50 (BT-549) | GI50 (DU-145) | GI50 (MCF7) | GI50 (T47D)
1 | CC1(C)CC(=O)C=C(NC(=O)c2ccccc2)C1 | > 100 µM (inactive) | > 100 µM (inactive) | > 100 | > 100 µM (inactive) | > 100 µM (inactive) | > 100 µM (inactive) | > 100 µM (inactive) | > 100 µM (inactive) | > 100 µM (inactive) | > 100 µM (inactive) | > 100 µM (inactive) | > 100 µM (inactive) | > 100 µM (inactive) | > 100 µM (inactive) | > 100 µM (inactive) |  |  |  |  | 
2 | C(=C1/CCCCC([n+]2ccccc2)=N1)/c1ccccc1 | > 100 µM (inactive) | > 100 µM (inactive) | > 100 | > 100 µM (inactive) | > 100 µM (inactive) | > 100 µM (inactive) | > 100 µM (inactive) | > 100 µM (inactive) | > 100 µM (inactive) | > 100 µM (inactive) | > 100 µM (inactive) | > 100 µM (inactive) | > 100 µM (inactive) | > 100 µM (inactive) |  | > 100 µM (inactive) |  |  |  | 
3 | CCc1cccc(C(C)C)c1NC(=O)C(=O)C(Cc1nc2ccccc2nc1O)C(=O)OC (stereo unspecified) | > 100 µM (inactive) | 61.4 µM (inactive) | > 100 | > 100 µM (inactive) | > 100 µM (inactive) | > 100 µM (inactive) | > 100 µM (inactive) | > 100 µM (inactive) | 39.2 µM (inactive) | > 100 µM (inactive) | > 100 µM (inactive) | > 100 µM (inactive) | > 100 µM (inactive) | > 100 µM (inactive) | > 100 µM (inactive) | > 100 µM (inactive) |  |  |  | 
4 | Clc1ccc2c(Cl)ncnc2c1 | > 100 µM (inactive) | > 100 µM (inactive) | > 100 | 85.7 µM (inactive) | > 100 µM (inactive) | > 100 µM (inactive) | > 100 µM (inactive) | > 100 µM (inactive) | > 100 µM (inactive) | > 100 µM (inactive) | > 100 µM (inactive) | > 100 µM (inactive) | > 100 µM (inactive) | > 100 µM (inactive) | > 100 µM (inactive) | > 100 µM (inactive) |  |  |  | 
5 | COc1c(O)c2c(c3cc(C(=O)N4CCc5c4c(O)c(OC)c4[nH]c(C(=O)N6CC7CC78C6=CC(=O)c6[nH]cc(C)c68)cc54)[nH]c13)CCN2C(N)=O (stereo unspecified) [CC-1065] | 0.000381 µM (active) | 0.00142 µM (active) | 0.0149 | 0.00306 µM (active) | 0.00309 µM (active) | 0.00209 µM (active) | 0.000927 µM (active) |  | 0.027 µM (active) | 0.00119 µM (active) | 0.00366 µM (active) | 0.00184 µM (active) | 0.00217 µM (active) | 0.000685 µM (active) | 0.00457 µM (active) | 0.00298 µM (active) | 1.04 µM (active) | 0.284 µM (active) | 0.0577 µM (active) | 0.356 µM (active)
6 | O=C(NCCCCCCNC(=O)n1cc(F)c(=O)[nH]c1=O)NCCCOCCOCCOCCOCCOCCOCCOCCOCCOCCOCCOCCOCCOCCOCCOCCOCCOCCOCCOCCOCCOCCCNC(=O)C(O)C(O)C(OC1OC(CO)C(O)C(O)C1O)C(O)CO (stereo unspecified) | 17.8 µM (inactive) | 19.8 µM (inactive) | 17.5 | > 100 µM (inactive) | 52.4 µM (inactive) | 35.8 µM (inactive) | 22.5 µM (inactive) | 29.6 µM (inactive) | 17 µM (inactive) | 64.9 µM (inactive) | 1.67 µM (inactive) | 29.1 µM (inactive) | > 86.9 µM (inactive) | 56.5 µM (inactive) | 88.3 µM (inactive) | 10.3 µM (inactive) | > 100 µM (inactive) | 27.7 µM (inactive) | 6.07 µM (inactive) | 85.7 µM (inactive)
